Data set [1] deals with ALR2. Details: method as in Mylari et al. [49]. As to conditions: preclinical studies; ref Mylari et al. [49]; cited from earlier work.
Details of data set [2]: method as in Mylari et al. [49]. As to conditions: ref Mylari et al. [49], cited from earlier work.
For data set [3], the system named is Caco-2. Details: method as in Mylari et al. [49]. As to conditions: ref Mylari et al. [49]; cited from earlier work.
Data set [4] deals with diabetic rats. Also on record: method as in Mylari et al. [49]. As to conditions: lens, retina and sciatic nerve of diabetic rats; ref Mylari et al. [49]; cited from earlier work.
In data set [5] the target is T1, partially purified ALR2 from rat lenses (Rattus norvegicus, UniProt P07943).
T1 construct: Supernatant containing the partially purified ALR2 enzyme was used directly or stored at −80 °C for less than 24 h; from tissue; host or cells: eye lenses of Fischer-344 rats (homogenate supernatant after 40% ammonium sulfate precipitation)
Briefly: ALR2 enzymatic assay (NADPH consumption, DL-glyceraldehyde substrate). It is filed as biochemical. As to conditions: for fold activity loss compared to lead compound IIc: IC50 ratio versus IIc, rat ALR2 enzyme; for fold less strong ARI than sorbinil and epalrestat: IC50 ratio versus the reference drugs sorbinil and epalrestat; for inhibition at 10 µM: cut-off concentration of 10 μM; for IC50: partially purified ALR2 from rat lenses, 0.1–10 μM concentrations. The method, then:
The ALR2 enzyme was isolated from rat lenses of the Fischer-344 series. Laboratory animal handling and experiment conduct was carried out in accordance with the Law on the Protection of Laboratory Animals (Hellenic Republic) and was declared to the Veterinary Authority of the Republic of Greece. The animal study protocol was approved by the Ethics Committee of the Prefecture of Central Macedonia (protocol code 270079/2500) for studies involving animals.
Eye lenses were quickly removed from Fischer-344 rats following euthanasia. The enzyme was partially purified by a well-established and previously reported procedure. The lenses were removed from euthanized rats and were quickly stored at −80 °C until used. Great care was taken to clean the lenses mechanically from other ocular tissues and debris. The lenses were homogenized in 5 vol of cold ultrapure water (0.5 mL per lens), and the homogenate was centrifuged at 10,000 × rpm at 0–4 °C for 15 min. The supernatant was then collected, precipitated with a saturated solution of ammonium sulfate (40% saturation), and centrifuged at 10,000 × rpm at 0–4 °C for 15 min. Supernatant containing the partially purified ALR2 enzyme was used directly or stored at −80 °C for less than 24 h.
ALR2 activity was assayed spectrophotometrically by determining NADPH consumption (ε340nm = 6300 M^−1 × cm^−1). The examined compounds were dissolved in DMSO (1% final concentration) at appropriate final concentrations (0.1–10 μM). The effects of the compounds on enzyme activity were determined by including the inhibitor in the reaction mixture at required concentrations. At the same concentration, the inhibitor was included in the reference blank. The reference blank contained all the following reagents except the substrate to correct NADPH oxidation, which is not associated with the substrate’s reduction. Briefly, 2.4 mL of 66.7 mM phosphate Na^+/K^+ assay buffer (pH = 6.2), 100 μL of 3.2 mM NADPH solution in assay buffer, 300 μL of enzyme supernatant, 90 μL of ultrapure water, and 10 μL of solution of tested inhibitors in DMSO in appropriate concentration or pure DMSO (served as control) were mixed in that order in a glass vial. Subsequently, 1 mL of that mixture was transferred to each 1.5 mL-UV quartz cuvette (10 mm path length), and 100 μL of assay buffer (reference blank) or 110 mM DL-glyceraldehyde solution (10 mM final concentration) in assay buffer was added to initiate the enzyme reaction. ALR2 activity was assayed by monitoring NADPH consumption (0.1 mM final concentration) at 340 nm for 5 min after incubating reaction mixtures for 1 min at 30 °C. […] IC50 values were determined by least-squares regression analysis of the semi-logarithmic dose–inhibition curves. Each curve was generated using at least five compounds’ concentrations, causing inhibition from at least 15–80% in at least three triplicate repetitions.

Usually IC50 stands for the point on the concentration scale where inhibition reaches its midpoint. Consider `Cc1c(S(=O)(=O)c2ccc(=O)[nH]n2)oc2ccc(Cl)cc12` [CP-744809, 6-(5-chloro-3-methylbenzofuran-2-sulfonyl)-2H-pyridazin-3-one], for which, in data set [1], the IC50 is 0.84 nM. Moreover, the oral bioavailability in data set [2] (at 2 mg/kg) is reported as 98%. Further, the plasma half-life in data set [2] (preclinical studies) was 23 to 29 h. In data set [3], the Caco-2 transcellular permeability is > 10^−5 cm/s. The “in vivo normalization of elevated sorbitol and fructose” value in data set [4] is “remarkable efficiency in vivo in normalizing elevated sorbitol and fructose”.
A word on the inhibition: it is the share of the control response that was lost under treatment. For `O=S(=O)(c1ccc(O)c(F)c1)n1ccc2cc(F)ccc21` [Compound 3a, 4-((5-fluoro-1H-indol-1-yl)sulfonyl)-2-fluorophenol], in data set [5], the “fold activity loss compared to lead compound IIc” value was 3.1 fold; the “fold less strong ARI than sorbinil and epalrestat” value amounted to 12 fold; the inhibition at 10 µM was found to be 74.5 ± 2.6%; 3020 ± 450 nM corresponded to half-maximal inhibition (IC50).
Turning to `O=S(=O)(c1ccc(O)c(F)c1)n1ccc2cc(Cl)ccc21` [Compound 3b, 4-((5-chloro-1H-indol-1-yl)sulfonyl)-2-fluorophenol], in data set [5], the “fold activity loss compared to lead compound IIc” value is on record as 2.3 fold; the “fold less strong ARI than sorbinil and epalrestat” value is on record as 9 fold; the inhibition at 10 µM came out at 77.6 ± 1.3%; the IC50 came to 2220 ± 280 nM.
On the same counts, the results for `O=S(=O)(c1ccc(O)c(F)c1)n1ccc2cc(Br)ccc21` [Compound 3c, 4-((5-bromo-1H-indol-1-yl)sulfonyl)-2-fluorophenol] are 1.9 fold, 7.4 fold, 80.6 ± 2% and 1850 ± 150 nM.
With `Oc1ccc(-n2ccc3cc(Cl)ccc32)cc1F` [Compound 3d, 4-(5-chloro-1H-indol-1-yl)-2-fluorophenol], in data set [5], the inhibition at 10 µM worked out at 43.7 ± 1.3% and the IC50 is above 10000 nM. For the same compound, the “ALR2 inhibitory activity at 1 μM” value in data set [5] (lower dose of 1 μM) was “completely inactive”.

The values are drawn from publication PMC12286057, “An Investigation of 5-Halogenated N-Indolylsulfonyl-2-fluorophenol Derivatives as Aldose Reductase Inhibitors” (Medicines, 2025).
